Measured values as given in paper PMC7190985 (Frontiers in Microbiology, 2020).
“Also recorded” adds a separate entry of the source.

Columns and labels:
VACV-WR-GFP virus = assay: microbe, parasite or virus in culture; type: cell-based; details: Orthopoxvirus vaccinia, HeLa, 24 h; for IC50: read-out: IC50 (50% inhibition of viral spread); for IC90: read-out: IC90 (90% inhibition of viral spread)
VACV WR A4-YFP = type: cell-based, vaccinia virus
in vitro = details: human
VACV WR-Luc virus = type: cell-based
luciferase = luciferase (Photinus pyralis, UniProt P08659); type: biochemical
Chain of luciferase (P08659 whole entry): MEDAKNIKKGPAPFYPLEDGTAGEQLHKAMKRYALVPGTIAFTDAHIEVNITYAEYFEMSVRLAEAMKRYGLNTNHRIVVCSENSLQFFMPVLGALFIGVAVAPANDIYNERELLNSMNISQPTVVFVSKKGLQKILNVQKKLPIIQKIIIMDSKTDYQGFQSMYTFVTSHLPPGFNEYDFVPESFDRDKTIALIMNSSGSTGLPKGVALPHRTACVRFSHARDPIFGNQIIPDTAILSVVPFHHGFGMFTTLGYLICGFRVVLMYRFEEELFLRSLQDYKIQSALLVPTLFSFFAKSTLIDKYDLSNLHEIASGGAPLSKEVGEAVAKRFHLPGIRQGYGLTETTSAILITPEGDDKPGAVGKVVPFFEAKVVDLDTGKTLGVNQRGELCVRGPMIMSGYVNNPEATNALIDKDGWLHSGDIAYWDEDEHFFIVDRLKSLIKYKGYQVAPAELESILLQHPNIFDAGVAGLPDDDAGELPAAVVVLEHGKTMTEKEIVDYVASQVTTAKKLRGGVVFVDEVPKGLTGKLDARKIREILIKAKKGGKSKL

VACV WR = type: cell-based, vaccinia virus
VACV IHDJ virus = type: cell-based, vaccinia virus

SMILES	IC50 (VACV-WR-GFP virus)	IC90 (VACV-WR-GFP virus)	virus-loaded actin tails per cell (VACV WR A4-YFP)	CC50 (in vitro)	viral entry (luciferase RLU) (VACV WR-Luc virus)	luciferase enzyme activity (RLU) (luciferase)	viral plaque size, wild-type virus (VACV WR)	MV yield / MV formation (VACV IHDJ virus)	luciferase activity (viral entry) (VACV WR-Luc virus)
O=C1CN(C(=O)c2nccs2)C(c2cc(Cl)cc(Cl)c2)c2cc(Cl)ccc2N1 (centres unmarked) [PA24]	1000 nM	1800 nM	significant decrease in virus-loaded tails	> 400000 nM	did not markedly decrease viral entry; also recorded: reduced viral entry	–	–	–	–
O=C1CN(C(=O)c2nccs2)C(c2cccc(Cl)c2)c2cc(Br)ccc2N1 (centres unmarked) [PA104]	500 nM	1300 nM	significant decrease in virus-loaded tails	> 400000 nM	a decrease in viral entry was observed	does not impact luciferase enzyme activity	maximal inhibition of plaque size	small reduction in MV yield	observable reduction in luciferase activity
CCC(=O)N1CC(=O)Nc2ccc(Br)cc2C1c1ccccc1 (centres unmarked) [Retro 1]	3000 nM	7200 nM	–	> 400000 nM	–	–	–	–	–
Cc1ccc(/C=N/c2ccccc2C(=O)Nc2ccccc2)s1 [Retro 2]	2200 nM	5500 nM	–	> 400000 nM	–	–	–	–	–
O=C(NN1C(=O)[C@@H]2[C@@H]3C=C[C@@H]([C@H]4C[C@@H]34)[C@@H]2C1=O)c1ccc(C(F)(F)F)cc1 [ST-246]	40 nM	100 nM	–	> 400000 nM	–	–	–	–	–
